Experimental data: publication PMC5513680 (Medical Science Monitor : International Medical Journal of …, 2017)

Tests used:
Format in all cases: biochemical
[1] = target: butylcholinesterase (BuChE) (Homo sapiens, UniProt P06276); assay: BChE inhibition assay
[2] = target: Acetylcholinesterase (AChE) (Homo sapiens, UniProt P22303); assay: AChE inhibition assay; settings: for Selectivity Index (SI): determined by BuChE/AChE (IC50 ratio)
Aβ (1–42) = Aβ (1–42) (Homo sapiens, UniProt P05067); assay: Self-mediated Aβ
Sequence of Aβ (1–42) (P05067 672-713): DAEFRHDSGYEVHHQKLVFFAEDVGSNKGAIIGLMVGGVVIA

β-secretase = β-secretase (Homo sapiens, UniProt P56817); assay: β-secretase inhibition assay
Sequence of β-secretase (P56817 46-501): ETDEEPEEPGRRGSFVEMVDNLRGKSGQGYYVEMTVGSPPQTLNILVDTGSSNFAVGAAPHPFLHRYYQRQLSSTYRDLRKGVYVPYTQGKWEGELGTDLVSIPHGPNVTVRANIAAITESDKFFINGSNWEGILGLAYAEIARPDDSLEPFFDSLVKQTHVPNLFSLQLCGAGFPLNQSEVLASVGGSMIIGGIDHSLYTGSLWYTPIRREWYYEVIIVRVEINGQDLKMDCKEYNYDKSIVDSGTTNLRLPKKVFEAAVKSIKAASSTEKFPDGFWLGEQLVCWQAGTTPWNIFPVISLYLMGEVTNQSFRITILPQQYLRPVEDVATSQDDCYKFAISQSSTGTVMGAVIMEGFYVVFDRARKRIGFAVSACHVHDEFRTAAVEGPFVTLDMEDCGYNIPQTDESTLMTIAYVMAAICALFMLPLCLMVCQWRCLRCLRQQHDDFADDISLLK

Sequence of Acetylcholinesterase (AChE) (P22303 32-614, species assumed): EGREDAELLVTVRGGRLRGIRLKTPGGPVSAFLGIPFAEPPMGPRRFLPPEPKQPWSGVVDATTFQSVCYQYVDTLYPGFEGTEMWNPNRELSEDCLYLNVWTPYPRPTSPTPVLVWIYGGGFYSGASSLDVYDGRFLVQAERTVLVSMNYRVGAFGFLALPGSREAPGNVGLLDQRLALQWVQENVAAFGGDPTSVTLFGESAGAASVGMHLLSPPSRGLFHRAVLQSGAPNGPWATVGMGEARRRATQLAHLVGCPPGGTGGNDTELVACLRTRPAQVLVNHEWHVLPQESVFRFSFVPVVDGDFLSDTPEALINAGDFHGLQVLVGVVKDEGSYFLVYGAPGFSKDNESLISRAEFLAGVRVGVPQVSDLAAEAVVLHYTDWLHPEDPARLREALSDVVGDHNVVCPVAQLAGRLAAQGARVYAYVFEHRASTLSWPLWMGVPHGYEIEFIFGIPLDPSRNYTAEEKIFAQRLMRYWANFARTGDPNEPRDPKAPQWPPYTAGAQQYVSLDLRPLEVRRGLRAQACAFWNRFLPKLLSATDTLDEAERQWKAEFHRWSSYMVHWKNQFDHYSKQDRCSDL
Sequence of butylcholinesterase (BuChE) (P06276 29-602): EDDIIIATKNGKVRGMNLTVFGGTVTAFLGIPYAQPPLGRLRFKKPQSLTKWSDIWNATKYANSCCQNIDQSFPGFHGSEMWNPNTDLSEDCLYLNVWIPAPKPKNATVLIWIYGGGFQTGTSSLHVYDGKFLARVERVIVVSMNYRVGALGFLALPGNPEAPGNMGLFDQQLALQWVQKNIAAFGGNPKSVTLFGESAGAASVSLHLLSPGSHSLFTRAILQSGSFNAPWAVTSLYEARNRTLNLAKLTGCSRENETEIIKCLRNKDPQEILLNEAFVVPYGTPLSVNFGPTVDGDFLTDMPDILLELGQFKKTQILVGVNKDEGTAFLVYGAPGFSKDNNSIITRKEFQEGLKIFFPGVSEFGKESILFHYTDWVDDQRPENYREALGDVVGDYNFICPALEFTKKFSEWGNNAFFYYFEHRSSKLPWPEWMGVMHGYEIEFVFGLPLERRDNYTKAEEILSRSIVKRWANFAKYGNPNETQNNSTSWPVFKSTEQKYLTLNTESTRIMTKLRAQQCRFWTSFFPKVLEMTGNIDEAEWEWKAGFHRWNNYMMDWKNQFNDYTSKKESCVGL

SMILES	IC50 [1] [µM]	IC50 [2] [µM]	Selectivity Index (SI) [2]	fold less active against BuChE than the parent compound (8g) ([1]; relative to 8g)	fold less active against AChE than the parent compound (8g) ([2]; relative to 8g)	IC50 (Aβ (1–42)) [µM]	IC50 (β-secretase) [µM]
O=C(/C=C/c1ccccc1)c1ccc(OCCNC2CCN(Cc3ccccc3)CC2)cc1 [8a, (E)-1-(4-(2-((1-benzylpiperidin-4-yl)amino)ethoxy)phenyl)-3-phenylprop-2-en-1-one]	21.72 ± 0.11	32.34 ± 0.26	0.67				
O=C(/C=C/c1ccccc1)c1ccc(OCCNC2CCN(Cc3ccc(Cl)cc3)CC2)cc1 [8b, (E)-1-(4-(2-((1-(4-chlorobenzyl)piperidin-4-yl)amino)ethoxy)phenyl)-3-phenylprop-2-en-1-one]	19.45 ± 0.15	10 ± 0.54	1.93				
O=C(/C=C/c1ccccc1)c1ccc(OCCNC2CCN(Cc3ccc(Br)cc3)CC2)cc1 [8c, (E)-1-(4-(2-((1-(4-bromobenzyl)piperidin-4-yl)amino)ethoxy)phenyl)-3-phenylprop-2-en-1-one]	28.4 ± 0.42	18.1 ± 0.33	1.56				
O=C(/C=C/c1ccccc1)c1ccc(OCCNC2CCN(Cc3ccc(F)cc3)CC2)cc1 [8d, (E)-1-(4-(2-((1-(4-fluorobenzyl)piperidin-4-yl)amino)ethoxy)phenyl)-3-phenylprop-2-en-1-one]	26.5 ± 0.28	14.2 ± 0.15	1.86				
O=C(/C=C/c1ccccc1)c1ccc(OCCNC2CCN(Cc3ccc([N+](=O)[O-])cc3)CC2)cc1 [8e, (E)-1-(4-(2-((1-(4-nitrobenzyl)piperidin-4-yl)amino)ethoxy)phenyl)-3-phenylprop-2-en-1-one]	25 ± 0.31	28.62 ± 0.22	0.87				
COc1ccc(CN2CCC(NCCOc3ccc(C(=O)/C=C/c4ccccc4)cc3)CC2)cc1 [8f, (E)-1-(4-(2-((1-(4-methoxybenzyl)piperidin-4-yl)amino)ethoxy)phenyl)-3-phenylprop-2-en-1-one]	9.45 ± 0.25	4.22 ± 0.34	2.23	approximately 3 fold	approximately 3 fold		
Cc1ccc(CN2CCC(NCCOc3ccc(C(=O)/C=C/c4ccccc4)cc3)CC2)cc1 [8g, (E)-1-(4-(2-((1-(4-methylbenzyl)piperidin-4-yl)amino)ethoxy)phenyl)-3-phenylprop-2-en-1-one]	3.23 ± 0.12	1.12 ± 0.13	2.88			18.2 ± 2.3	23.1 ± 1.8
O=C(/C=C/c1ccccc1)c1ccc(OCCNC2CCN(Cc3ccc(Cl)c(Cl)c3)CC2)cc1 [8h, (E)-1-(4-(2-((1-(3,4-dichlorobenzyl)piperidin-4-yl)amino)ethoxy)phenyl)-3-phenylprop-2-en-1-one]			1.06				
